{"source": "patent US20030008903A1", "about": "“R-lansoprazole compositions and methods” (Sepracor Inc., priority 1998, published 2003)", "key": {"gastric acid secretion": {"system": "gastric acid secretion", "conditions": "humans; cited from earlier work"}, "[1]": {"conditions": "humans; cited from earlier work"}, "serum gastrin": {"system": "serum gastrin", "conditions": "humans, on administration of racemic lansoprazole; cited from earlier work"}, "[2]": {"system": "hepatic drug metabolizing enzyme systems", "conditions": "compared with omeprazole; cited from earlier work"}, "[3]": {"conditions": "human, in vivo", "description": "Utilizing the optically pure or substantially optically pure isomer of (+) lansoprazole results in enhanced efficacy, diminished adverse effects, and accordingly, an improved therapeutic index. […] It is therefore, more desirable to use the (+) isomer of lansoprazole than to administer the racemic mixture because predictability of an effective and safe dose for an individual patient is greater."}, "canine parietal cells": {"system": "canine parietal cells", "conditions": "isolated canine parietal cells; (+) versus (−) enantiomer; Nagaya et al.; cited from earlier work"}}}
{"molecule": "Cc1c(OCC(F)(F)F)ccnc1C[S+]([O-])c1nc2ccccc2[nH]1", "note": "(racemic) [racemic lansoprazole, 2-[3-methyl-4-(2,2,2-trifluoroethoxy)pyrid-2-yl]methylsulfinyl-benzimidazole]", "values": [{"measurement": "duration of the acid inhibitory effect", "setting": "gastric acid secretion", "value": "about 24 hours"}, {"measurement": "serum half-life", "setting": "[1]", "value": "about 1.5 hours"}, {"measurement": "fasting serum gastrin levels", "setting": "serum gastrin", "value": "significantly elevated"}, {"measurement": "effects on hepatic drug metabolizing enzyme systems", "setting": "[2]", "value": "comparable to omeprazole"}]}
{"molecule": "Cc1c(OCC(F)(F)F)ccnc1C[S@@+]([O-])c1nc2ccccc2[nH]1", "note": "(single isomer, unassigned) [R(+) lansoprazole, (+) isomer of 2-[3-methyl-4-(2,2,2-trifluoroethoxy)pyrid-2-yl]methylsulfinyl-benzimidazole]", "values": [{"measurement": "half-life", "setting": "[3]", "value": "longer half-life"}, {"measurement": "variation in the patient population between good metabolizers and poor metabolizers", "setting": "[3]", "value": "less variation"}, {"measurement": "effects on acid formation stimulated by db-cAMP", "setting": "canine parietal cells", "value": "almost identical"}]}
{"molecule": "Cc1c(OCC(F)(F)F)ccnc1C[S+]([O-])c1nc2ccccc2[nH]1", "note": "(stereo not drawn) [S(−) lansoprazole]", "values": [{"measurement": "effects on acid formation stimulated by db-cAMP", "setting": "canine parietal cells", "value": "almost identical"}]}
